Tests used:
[1] = Circular dichroism (CD) conformational measurements; assay type: physicochemical
Protocol: (§1) Samples for circular dichroism (CD) measurements were prepared in 10 mM aqueous phosphate buffer solution, pH 7.0, containing 200 ppm LL-37 (as the trifluoroacetate, lot 971/26), with and without 0.40% CPL-Galactolipid. The samples, 20 ml in 50 ml glass flasks, were vigorously shaken with an ST mixer (type B1, E. Büchler, Tübingen) set at 7.5 (corresponding to an approximate frequency of 220/min) for 2 h. They were then allowed to equilibrate and settle over night at 2-8° C.
CD spectra were recorded on a Jasco J-720 (Jasco Inc.) spectropolari-meter. The sample compartment with the cuvette cell (1 mm path length) was placed near the photomultiplier, in order to reduce effects of light scattering from the disper-sions. The samples were measured at room temperature and scanned from 280 to 200 nm at a rate of 20 nm/min, with a resolution of 1 nm and 3 accumulations per run. The results are expressed as the mean residue ellipticity, [θ], and the percentage of α-helical conformation at 222 nm is estimated by the following formula: ([θ]222+3900)·100/41900.

[2] = Storage of the CD samples for one month at 4° C.; assay type: physicochemical
Protocol: as §1
An anionic synthetic phospholipid, palmitoyl-oleoyl-phosphatidylglycerol (POPG; Sigma-Aldrich, P6956) was used as a reference and tested using the same experimental conditions as described above.

HaCat cells [3] = test: Proliferation and viability of HaCat cells measured by mitochondrial activity (WST-1); assay type: cell-based, human; conditions: LL-37 100 μg/ml, 10% serum, 48 h
Protocol: HaCat cells were used for these experiments. HaCat cells are an immortalized human keratinocyte cell line (Boukamp et al., J Cell Biol 106:761-771, 1988), which is suitable for experimental keratinocyte research. HaCat cells were cultured in medium (DMEM, +10% FCS and PEST). Both types of cell cultures were treated with synthetic, bioactive LL-37 (lot YS 5253). In addition a mixture of LL-37 (114 μg/ml) and CPL-Galactolipid (0.2%) in medium containing serum at either 2 or 10% was added to evaluate the capacity to increase proliferation and inhibit cytotoxicity. Cells were harvested at different time-points (24 h, 48 h, 72 h and 96 h) and counted by flowcytometry (Becton-Dickinson) and stained by Trypan-Blue to evaluate viability. […] Proliferation and viability were also ascertained by measuring mitochondrial activity (WST-1, Roche, Cook et al. Anal Biochem 179:1-7, 1989).

HaCat cells [4] = test: Proliferation of HaCat cells assessed by 3H-Thymidine incorporation; assay type: cell-based, human; conditions: 10% serum, 96 h; for Increased Proliferation (%): vs control 0 μg/ml
Protocol: HaCat cells were cultured in medium (DMEM, +10% FCS and PEST). HaCaT cells were plated in 96 well plates (Falcon, USA) at the concentration of 2000 cells per well. Cells were plated at −48 hours and stimulated with different concen-trations of synthetic LL-37, LL-36, and LL-38 peptide by hour 0 and after 48 hours.
The testing was done in one experiment with 6 wells in each condition. […] of ^3H-Thymidine (THYMIDINE, [METHYL-^3H]-740.0 GBq/mmol (20.00 Ci/mmol) 1.0 ml of Ethanol:Water, 7:3, Perkin Elmer Life Sciences Inc. Boston Mass., USA) was added to each well and incubated for 12-17 hours. Proliferation was evaluated by ^3H-Thymidine incorporation a liquid scintilator (MicroBeta Perkin Elmer Life Sciences Inc. Boston Mass., USA) after 72 and 96 hours.

Human Wound Fibroblast = test: Proliferation and viability of human wound fibroblasts (WST-1); assay type: cell-based; conditions: 48 Hours; for Increased Proliferation (%): vs control
Text: (§2) The peptide LL-37 used in this and following tests was as described in Example 1 (lot 971/26). The fibroblasts, a type of stromal cells, were obtained from injured and uninjured skin in patients with chronic leg ulcers due to venous insufficiency. Punch-biopsies (4-mm) were taken from the wound margin including 50% of the epithelialized area and from uninjured skin in the knee region. Individuals with a history of diabetes mellitus, arterial insufficiency or chronic inflammatory disease were excluded. Patients with signs of eczema in the ulcer margin, clinical signs of infection or undergoing systemic or topical antibiotic treatment at the time for biopsy were also excluded. Patients included were all treated with inert local dressings and standard compression bandaging.
(§3) Fibroblast were put in culture using explant technique (Hehenberger et al., Cell Biochem Funct 15:197-201, 1997). Fibroblasts were plated in 96 well plates (Falcon, USA) at the concentration of 2000 cells per well. Cells were plated at −48 hours and stimulated with different concentrations of synthetic LL-37 peptide by hour 0. The testing was done in one experiment with 6 wells in each condition. Proliferation and viability were ascertained by measuring mitochondrial activity (WST-1, Roche) after 24 h and 48 h. Increase in cell proliferation (Proliferation Index) is calculated in comparison with baseline (Control=0 μg/ml). Mean values from six samples per condition in one experiment are presented.

Human Normal Fibroblast = test: Proliferation and viability of human normal fibroblasts (WST-1); assay type: cell-based; conditions: 10% serum, 48 Hours; for Increased Proliferation (%): vs control
Text: as §2, §3

[5] = LL-37 25 μg/ml, no lipid, 10% serum
[6] = LL-37 50 μg/ml, no lipid, 10% serum
[7] = LL-37 100 μg/ml, no lipid, 10% serum
[8] = LL-37 100 μg/ml, with lipid 0.2%, 2% serum

## LLGDFFRKSKEKIGKEFKRIVQRIKDFLRNLVPRTES [LL-37]
[1]; 200 ppm LL-37 in 10 mM phosphate buffer, pH 7.0, from minimum at 222 nm
  percentage α-helical structure: about 63%
[1]; 200 ppm LL-37 with 0.40% (w/w) galactolipid, 10 mM phosphate buffer pH 7.0
  percentage α-helical structure: ~64%
[1]; LL-37 with POPG (anionic phospholipid), same conditions
  percentage α-helical structure: 58%
[2]; LL-37 with POPG
  appearance after storage: partially separated, with sediments on the bottom of the container
[2]; LL-37 with galactolipid
  appearance after storage: redispersed to a fine dispersion by gentle agitation
HaCat cells [3]
  Absorbance: 1.110
  Trypan Blue + (%): <1%
HaCat cells [3]; vs baseline
  Increased Proliferation (%): 78%
HaCat cells [4]; LL-37 1.00 μg/ml
  Counts Per Minute (Mean): 75445 Counts Per Minute
  Increased Proliferation (%): 43%
HaCat cells [4]; LL-37 5.00 μg/ml
  Counts Per Minute (Mean): 102353 Counts Per Minute
  Increased Proliferation (%): 94%
HaCat cells [4]; LL-37 10.00 μg/ml
  Counts Per Minute (Mean): 73548 Counts Per Minute
  Increased Proliferation (%): 39%
HaCat cells [4]; LL-37 25.00 μg/ml
  Counts Per Minute (Mean): 76510 Counts Per Minute
  Increased Proliferation (%): 45%
HaCat cells [4]; LL-37 50.00 μg/ml
  Counts Per Minute (Mean): 65119 Counts Per Minute
  Increased Proliferation (%): 23%
Human Wound Fibroblast; [5]
  Absorbance: 1.171
  Increased Proliferation (%): 49%
Human Wound Fibroblast; [6]
  Absorbance: 1.073
  Increased Proliferation (%): 37%
Human Wound Fibroblast; [7]
  Absorbance: 0.955
  Increased Proliferation (%): 22%
Human Wound Fibroblast; [8]
  Absorbance: 0.960
  Increased Proliferation (%): 22%
Human Normal Fibroblast; LL-37 25 μg/ml
  Absorbance: 0.597
  Increased Proliferation (%): 7%
Human Normal Fibroblast; LL-37 50 μg/ml
  Absorbance: 0.626
  Increased Proliferation (%): 12%
Human Normal Fibroblast; LL-37 100 μg/ml
  Absorbance: 0.669
  Increased Proliferation (%): 19%

From patent publication US8936807B2, “Use of the cathelicidin LL-37 and derivatives thereof for wound healing” (Lipopeptide AB, priority 2003, dated 2015)
